Reference: US8846933B2, “N-link hydroxamic acid derivatives useful as antibacterial agents” (Pfizer Inc., priority 2009, dated 2014)

How the values were obtained:
[1] = test system: Pseudomonas aeruginosa UI-18: Wild-type (PA-7); test: MIC determination (CLSI), strain PA-7; assay type: cell-based; settings: strain PA-7, unit assumed
Method: (§1) The in vitro antibacterial activity of compounds described in the Examples was evaluated by minimum inhibitory concentration (MIC) testing according to Clinical and Laboratory Standards Institute (CLSI, formerly NCCLS) guidelines. See: Clinical and Laboratory Standards Institute. Methods for Dilution Antimicrobial Susceptibility Tests for Bacteria that Grow Aerobically; Approved Standard-Seventh Edition. CLSI document M7-A7 [ISBN 1-56238-587-9]. Clinical and Laboratory Standards Institute, 940 West Valley Road, Suite 1400, Wayne, Pa. 19087-1898 USA, 2006; also Clinical and Laboratory Standards Institute. Performance Standards for Antimicrobial Susceptibility Testing; Eighteenth Informational Supplement. CLSI document M100-S18 [ISBN1-56238-653-0].Clinical and Laboratory Standards Institute.
(§2) The following bacterial strains were used in these MIC determinations:
1) Pseudomonas aeruginosa UI-18: Wild-type, labeled as PA-7 in Tables 4, and 5;

[2] = test system: Escherichia coli EC-1: VOGEL, mouse virulent; test: MIC determination (CLSI), strain EC-1; assay type: cell-based; settings: strain EC-1, unit assumed
Method: as §1, §2
3) Escherichia coli EC-1: VOGEL, mouse virulent labeled as EC-1 in Tables 4 and 5;

[3] = generated in the same manner as in Table 4

SMILES	PA-7 (MIC) [1] [µg/mL]	EC-1 (MIC) [2] [µg/mL]	PA-7 (MIC) [1, 3] [µg/mL]	EC-1 (MIC) [2, 3] [µg/mL]
C[C@@](CCn1ccc(-c2ccc(-n3ncc[n+]3[O-])cc2)cc1=O)(C(=O)NO)S(C)(=O)=O [Example 401, (2R)-N-hydroxy-2-methyl-2-(methylsulfonyl)-4-{4-[4-(1-oxido-2H-1,2,3-triazol-2-yl)phenyl]-2-oxopyridin-1(2H)-yl}butanamide]	8	8		
CC(CCn1ccc(-c2ccc(Oc3cccnc3)cc2)cc1=O)(C(=O)NO)S(C)(=O)=O (stereo not shown) [Example 287, N-hydroxy-2-methyl-2-(methylsulfonyl)-4-{2-oxo-4-[4-(pyridin-3-yloxy)phenyl]pyridin-1(2H)-yl}butanamide]	4	0.5		
CCCCc1ccc(-c2ccn(CCC(C)(C(=O)NO)S(C)(=O)=O)c(=O)c2)cc1 (stereo not shown) [Example 199, 4-[4-(4-butylphenyl)-2-oxopyridin-1(2H)-yl]-N-hydroxy-2-methyl-2-(methylsulfonyl)butanamide]	2	0.125		
Cc1cc(OCCCO)ccc1-c1ccn(CCC(C)(C(=O)NO)S(C)(=O)=O)c(=O)c1 (stereo not shown) [Example 252, N-hydroxy-4-{4-[4-(3-hydroxypropoxy)-2-methylphenyl]-2-oxopyridin-1(2H)-yl}-2-methyl-2-(methylsulfonyl)butanamide]	16	16		
COc1ccc2cc(-c3ccn(CC[C@](C)(C(=O)NO)S(C)(=O)=O)c(=O)c3)ccc2n1 [Example 328, (2R)-N-hydroxy-4-[4-(2-methoxyquinolin-6-yl)-2-oxopyridin-1(2H)-yl]-2-methyl-2-(methylsulfonyl)butanamide]	1	1		
Cc1c(-c2ccn(CCC(C)(C(=O)NO)S(C)(=O)=O)c(=O)c2)cnn1-c1ccccc1 (stereo not shown) [Example 203, N-hydroxy-2-methyl-4-[4-(5-methyl-1-phenyl-1H-pyrazol-4-yl)-2-oxopyridin-1(2H)-yl]-2-(methylsulfonyl)butanamide]	> 64	64		
COc1cccc(-c2ccn(CC[C@](C)(C(=O)NO)S(C)(=O)=O)c(=O)c2)c1C [Example 468]	2	2		
CN1Cc2cc(-c3ccn(CCC(C)(C(=O)NO)S(C)(=O)=O)c(=O)c3)ccc2C1=O (stereo not shown) [Example 179, N-hydroxy-2-methyl-4-[4-(2-methyl-1-oxo-2,3-dihydro-1H-isoindol-5-yl)-2-oxopyridin-1(2H)-yl]-2-(methylsulfonyl)butanamide]			> 64	> 64
Cc1cc(OCCCCO)ccc1-c1ccn(CCC(C)(C(=O)NO)S(C)(=O)=O)c(=O)c1 (stereo not shown) [Example 243, N-hydroxy-4-{4-[4-(4-hydroxybutoxy)-2-methylphenyl]-2-oxopyridin-1(2H)-yl}-2-methyl-2-(methylsulfonyl)butanamide]	8	4		
Cc1cnn(-c2ccc(-c3ccn(CCC(C)(C(=O)NO)S(C)(=O)=O)c(=O)c3)cc2)n1 (stereo not shown) [Example 455]	1	0.06		
CCOc1ccc(-c2ccn(CCC(C)(C(=O)NO)S(C)(=O)=O)c(=O)c2)cn1 (stereo not shown) [Example 185, 4-(6-ethoxy-2′-oxo-3,4′-bipyridin-1′(2′H)-yl)-N-hydroxy-2-methyl-2-(methylsulfonyl)butanamide]	4	2		
Cc1cnc2ccc(-c3ccn(CCC(C)(C(=O)NO)S(C)(=O)=O)c(=O)c3)cc2c1 (stereo not shown) [Example 301, N-hydroxy-2-methyl-4-[4-(3-methylquinolin-6-yl)-2-oxopyridin-1(2H)-yl]-2-(methylsulfonyl)butanamide]	16	4		
COc1ccc(-c2ccn(CC[C@](C)(C(=O)NO)S(C)(=O)=O)c(=O)c2)cc1C [Example 346, (2R)-N-hydroxy-4-[4-(4-methoxy-3-methylphenyl)-2-oxopyridin-1(2H)-yl]-2-methyl-2-(methylsulfonyl)butanamide]	0.5	0.5		
CC(C)c1cccc(-c2ccn(CC[C@](C)(C(=O)NO)S(C)(=O)=O)c(=O)c2)c1 [Example 466]	4	2		
CC(CCn1ccc(-c2ccc(OCCCN3CCCCC3)cc2)cc1=O)(C(=O)NO)S(C)(=O)=O (stereo not shown) [Example 77]			64	64
C[C@@](CCn1ccc(-c2ccc(-c3ncno3)cc2)cc1=O)(C(=O)NO)S(C)(=O)=O [Example 417, (2R)-N-hydroxy-2-methyl-2-(methylsulfonyl)-4-{4-[4-(1,2,4-oxadiazol-5-yl)phenyl]-2-oxopyridin-1(2H)-yl}butanamide]	64	8		

SMILES	PA-7 (MIC) [1] [µg/mL]	EC-1 (MIC) [2] [µg/mL]	PA-7 (MIC) [1, 3] [µg/mL]	EC-1 (MIC) [2, 3] [µg/mL]
CC(C#N)Sc1ccc(-c2ccn(CC[C@](C)(C(=O)NO)S(C)(=O)=O)c(=O)c2)cc1 (stereo partly shown) [Example 357]	1	1		
COc1ccc(-c2ccn(CC[C@](C)(C(=O)NO)S(C)(=O)=O)c(=O)c2)cc1Cl [Example 334, (2R)-4-[4-(3-chloro-4-methoxyphenyl)-2-oxopyridin-1(2H)-yl]-N-hydroxy-2-methyl-2-(methylsulfonyl)butanamide]	1	8		
Cc1c(-c2cccc(Cl)c2F)ccn(CC[C@](C)(C(=O)NO)S(C)(=O)=O)c1=O [Example 413, (2R)-4-[4-(3-chloro-2-fluorophenyl)-3-methyl-2-oxopyridin-1(2H)-yl]-N-hydroxy-2-methyl-2-(methylsulfonyl)butanamide]	2	2		
Cc1c(Cl)cccc1-c1ccn(CCC(C)(C(=O)NO)S(C)(=O)=O)c(=O)c1 (stereo not shown) [Example 266, 4-[4-(3-chloro-2-methylphenyl)-2-oxopyridin-1(2H)-yl]-N-hydroxy-2-methyl-2-(methylsulfonyl)butanamide]	4	4		
C[C@@](CCn1ccc(-c2cc(F)cc(F)c2)cc1=O)(C(=O)NO)S(C)(=O)=O [Example 335, (2R)-4-[4-(3,5-difluorophenyl)-2-oxopyridin-1(2H)-yl]-N-hydroxy-2-methyl-2-(methylsulfonyl)butanamide]	2	1		
CCCCCc1ccc(-c2ccn(CCC(C)(C(=O)NO)S(C)(=O)=O)c(=O)c2)cc1 (stereo not shown) [Example 217, N-hydroxy-2-methyl-2-(methylsulfonyl)-4-[2-oxo-4-(4-pentylphenyl)pyridin-1(2H)-yl]butanamide]	8	< 0.06		
CC(CCn1ccc(-c2ccc(OCCO)cc2F)cc1=O)(C(=O)NO)S(C)(=O)=O (stereo not shown) [Example 85, 4-{4-[2-fluoro-4-(2-hydroxyethoxy)phenyl]-2-oxopyridin-1(2H)-yl}-N-hydroxy-2-methyl-2-(methylsulfonyl)butanamide]			16	16
CC(CCn1ccc(-c2ccc(OCc3cccnc3)cc2)cc1=O)(C(=O)NO)S(C)(=O)=O (stereo not shown) [Example 269, N-hydroxy-2-methyl-2-(methylsulfonyl)-4-{2-oxo-4-[4-(pyridin-3-ylmethoxy)phenyl]pyridin-1(2H)-yl}butanamide]	2	0.5		
Cn1c(=O)sc2cc(-c3ccn(CC[C@](C)(C(=O)NO)S(C)(=O)=O)c(=O)c3)ccc21 [Example 483]	8	8		
Cc1ccc(-c2ccn(CCC(C)(C(=O)NO)S(C)(=O)=O)c(=O)c2)cc1F (stereo not shown) [Example 151, 4-[4-(3-fluoro-4-methylphenyl)-2-oxopyridin-1(2H)-yl]-N-hydroxy-2-methyl-2-(methylsulfonyl)butanamide]			2	2
CC(CCn1ccc(-c2ccc(OCCCN3CCOCC3)c(F)c2)cc1=O)(C(=O)NO)S(C)(=O)=O (stereo not shown) [Example 223, 4-{4-[3-fluoro-4-(3-morpholin-4-ylpropoxy)phenyl]-2-oxopyridin-1(2H)-yl}-N-hydroxy-2-methyl-2-(methylsulfonyl)butanamide]	8	4		
COc1ccnc2ccc(-c3ccn(CC[C@](C)(C(=O)NO)S(C)(=O)=O)c(=O)c3)cc12 [Example 482]	> 64	> 64		
CC(O)Cc1ccc(-c2ccn(CCC(C)(C(=O)NO)S(C)(=O)=O)c(=O)c2)cc1 (stereo not shown) [Example 224, N-hydroxy-4-{4-[4-(2-hydroxypropyl)phenyl]-2-oxopyridin-1(2H)-yl}-2-methyl-2-(methylsulfonyl)butanamide]	8	32		
CC(CCn1ccc(-c2ccccc2C#N)cc1=O)(C(=O)NO)S(C)(=O)=O (stereo not shown) [Example 132, 4-[4-(2-cyanophenyl)-2-oxopyridin-1(2H)-yl]-N-hydroxy-2-methyl-2-(methylsulfonyl)butanamide]			> 64	> 64
CCCc1ccc(-c2ccn(CC[C@](C)(C(=O)NO)S(C)(=O)=O)c(=O)c2)cc1 [Example 465, (2R)-N-hydroxy-2-methyl-2-(methylsulfonyl)-4-[2-oxo-4-(4-propylphenyl)pyridin-1(2H)-yl]butanamide]	0.5	0.125		
C[C@@](CCn1ccc(-c2ccc(Oc3ccccc3C#N)cc2)cc1=O)(C(=O)NO)S(C)(=O)=O [Example 426, (2R)-4-{4-[4-(2-cyanophenoxy)phenyl]-2-oxopyridin-1(2H)-yl}-N-hydroxy-2-methyl-2-(methylsulfonyl)butanamide]	1	0.25		
